Experiments:
[1] = tested on: Trypanosoma brucei brucei; assay: Antitrypanosomal activity against Trypanosoma brucei brucei 221 incubated for 69 hrs by AlamarBlue assay; type: functional, organism-based; conditions: Trypanosoma brucei, 221, 69 h
[2] = Selectivity ratio of IC50 for human WI38 cells to IC50 for Trypanosoma brucei rhodesiense IL-1501; type: toxicity; conditions: read-out: Ratio IC50
[3] = tested on: Trypanosoma brucei rhodesiense; assay: Antitrypanosomal activity against Trypanosoma brucei rhodesiense IL-1501 incubated for 69 hrs by AlamarBlue assay; type: functional, organism-based; conditions: IL-1501, 69 h
[4] = Selectivity ratio of IC50 for human WI38 cells to IC50 for Trypanosoma brucei brucei 221; type: toxicity; conditions: read-out: Ratio IC50
WI-38 = assay: Cytotoxicity against human WI38 cells incubated for 72 hrs by MTT assay; type: cell-based; conditions: WI-38, 72 h

IC50 [1] [µM] | IC50 [3] [µM] | Structure (SMILES) | selectivity ratio [2] | selectivity ratio [4] | IC50 (WI-38) [µM]
1.5 | 1.5 | CC[C@@H](C)[C@H](C(=O)N1CCC[C@H]1C(=O)N1C(=O)C=C(OC)[C@@H]1C(C)C)N(C)C(=O)[C@@H]1CCCN1C(=O)[C@H](C(C)C)N(C)C(=O)[C@@H](Cc1ccccc1)NC(=O)[C@H](Cc1ccccc1)N(C)C | > 10 | > 10 | 18
> 20 | > 20 | CC[C@@H](C)[C@H](C(=O)O)N(C)C(=O)[C@@H]1CCCN1C(=O)[C@H](C(C)C)N(C)C(=O)[C@@H](Cc1ccccc1)NC(=O)[C@H](Cc1ccccc1)N(C)C | – | – | > 20
> 20 | > 20 | CC[C@@H](C)[C@H](C(=O)N1CCC[C@H]1C(=O)O)N(C)C(=O)[C@@H]1CCCN1C(=O)[C@H](C(C)C)N(C)C(=O)[C@@H](Cc1ccccc1)NC(=O)[C@H](Cc1ccccc1)N(C)C | – | – | > 20

From ChEMBL document CHEMBL4627382, “Iheyamides A-C, Antitrypanosomal Linear Peptides Isolated from a Marine Dapis sp. Cyanobacterium” (J Nat Prod, 2020)
